{"source": "patent US20240182513A1", "about": "“SEPARATION OF METAL IONS FROM A SAMPLE USING GLYCOLIPIDS” (ARIZONA BOARD OF REGENTS ON BEHALF OF THE UNIVERSITY OF …, priority 2021, published 2024)", "key": {"[1]": {"assay": "Example 2.1 rhamnolipid precipitation, filtration, centrifugation: lead", "settings": "for Treatment 2: Rhamnolipid and Filtration Cf / Treatment 3: Rhamnolipid and Centrifugation Cc / Treatment 1: Rhamnolipid Only Cr: lead concentration after treatment; for Treatment 1: Rhamnolipid Only (Rr) efficiency of removal / Treatment 2: Rhamnolipid and Filtration (Rf) efficiency of removal / Treatment 3: Rhamnolipid and Centrifugation (Rc) efficiency of removal: lead", "experimental": "(§1) Structural variants of synthetic glycolipids were used to show the effect of the number and length of the hydrophobic tail(s) on rhamnolipid as a chemical precipitant. […] Solutions (10 mM) were made using nanopure water (≥18 MΩ-cm) then adjusted to a pH of 6.9±0.05 with HNO3 and NaOH. These solutions were made in advance and stored in the cold room for up to one month. They were brought to room temperature before each experiment.\n(§2) Three metals were tested for binding with rhamnolipid. Lead as […] (Fisher Scientific, Waltham, MA, 99% purity), was chosen to represent a metal with high rhamnolipid-metal conditional stability constant; lanthanum as La(NO3)3 6(H2O) (Sigma-Aldrich, St. Louis, MO, 99.99% purity) was chosen as a representative REE; and magnesium as Mg(NO3)2 6(H2O) (Sigma-Aldrich, St. Louis, MO, 99% purity) was chosen to represent a metal with a low rhamnolipid-metal conditional stability constant (Hogan et al., 2017). Metal solutions (5 mM) were made using nanopure water (≥18 MΩ-cm) in 20 ml glass scintillation vials. All solutions were used within 15 min to ensure minimal adsorption to the glass vial.\n(§3) Three glycolipid-based treatments were evaluated to remove metal from solution: (1) the addition of glycolipid with no further treatment (gravitational precipitation), (2) the addition of a glycolipid followed by filtration or (3) the addition of a glycolipid followed by centrifugation. Each metal (Pb, La, and Mg) was evaluated separately with each of the glycolipid structures. For each experiment, a metal solution was mixed with a glycolipid solution in a 1.7 ml reaction tube at varying molar ratios of glycolipid to metal: 0:1 (glycolipid-free control), 2:1, 5:1, and 10:1. The reactions were mixed in the order of nanopure water (≥18 MΩ-cm), glycolipid solution (10 mM), then metal solution (5 mM). The metal and glycolipid solutions were continuously stirred as they were aliquoted into the reaction tubes. The experiment was performed in triplicate.\n(§4) The reaction tubes were mixed overnight (16 to 24 h) and then three samples were collected from each tube to measure the effect of each of the three treatments: a glycolipid only treatment sample, a filtration treatment sample, and a centrifugation treatment sample. Briefly, for the glycolipid only treatment samples all tubes were vortexed for approximately 5 sec immediately before removing 0.1 ml into a dilution tube of 2% trace metal grade nitric acid (12 to 14 ml) to minimize the settling of particles. For the filtration samples each reaction tube was vortexed for 5 sec and then a 0.6 ml aliquot was collected with a 1 ml syringe. A GHP acrodisc disk filter (hydrophilic polypropylene membrane, 0.45 μm pore size, 25 mm disc diameter) from Pall Life Sciences (Port Washington, New York) was then placed onto the end of the syringe and the solution was pushed through the filter. The void space in the disk filter holds approximately 0.5 ml, therefore around 0.1 ml of filtrate was collected into a dilution tube. For the centrifugation sample, the remaining solution was centrifuged at 10,000 RCF for 15 min. Approximately 0.1 ml of the supernatant was aliquoted into a dilution tube. Following collection, all samples were taken for metal analysis using ICP-MS."}, "[2]": {"assay": "Example 2.1 rhamnolipid precipitation, filtration, centrifugation: lanthanum", "settings": "for Treatment 2: Rhamnolipid and Filtration Cf / Treatment 3: Rhamnolipid and Centrifugation Cc / Treatment 1: Rhamnolipid Only Cr: lanthanum concentration after treatment; for Treatment 1: Rhamnolipid Only (Rr) efficiency of removal / Treatment 2: Rhamnolipid and Filtration (Rf) efficiency of removal / Treatment 3: Rhamnolipid and Centrifugation (Rc) efficiency of removal: lanthanum", "experimental": "as §1, §2, §3, §4"}, "[3]": {"assay": "Example 2.1 rhamnolipid precipitation, filtration, centrifugation: magnesium", "settings": "for Treatment 2: Rhamnolipid and Filtration Cf / Treatment 3: Rhamnolipid and Centrifugation Cc / Treatment 1: Rhamnolipid Only Cr: magnesium concentration after treatment", "experimental": "as §1, §2, §3, §4"}}}
{"smiles": "CCCCCCCCCC(CC(=O)O)OC(=O)CC(CCCCCCCCC)OC1O[C@@H](C)[C@H](O)[C@@H](O)[C@H]1O", "note": "(stereo partly drawn) [Rha C12C12, rhamnosyl-β-hydroxydodecanoyl-62-hydroxydodecanoate]", "values": [{"measurement": "Treatment 2: Rhamnolipid and Filtration Cf", "setting": "[1]; molar ratio 2 to 1", "result": "0.069 ± 0.018", "unit": "mmol/L"}, {"measurement": "Treatment 3: Rhamnolipid and Centrifugation Cc", "setting": "[1]; molar ratio 2 to 1", "result": "0.146 ± 0.008", "unit": "mmol/L"}, {"measurement": "Treatment 1: Rhamnolipid Only Cr", "setting": "[1]; molar ratio 5 to 1", "result": "0.204 ± 0.004", "unit": "mmol/L"}, {"measurement": "Treatment 2: Rhamnolipid and Filtration Cf", "setting": "[1]; molar ratio 5 to 1", "result": "0.049 ± 0.021", "unit": "mmol/L"}, {"measurement": "Treatment 3: Rhamnolipid and Centrifugation Cc", "setting": "[1]; molar ratio 5 to 1", "result": "0.047 ± 0.003", "unit": "mmol/L"}, {"measurement": "Treatment 1: Rhamnolipid Only Cr", "setting": "[1]; molar ratio 10 to 1", "result": "0.249 ± 0.10", "unit": "mmol/L"}, {"measurement": "Treatment 2: Rhamnolipid and Filtration Cf", "setting": "[1]; molar ratio 10 to 1", "result": "0.059 ± 0.028", "unit": "mmol/L"}, {"measurement": "Treatment 3: Rhamnolipid and Centrifugation Cc", "setting": "[1]; molar ratio 10 to 1", "result": "0.129 ± 0.002", "unit": "mmol/L"}, {"measurement": "Treatment 1: Rhamnolipid Only Cr", "setting": "[1]; molar ratio rhamnolipid:lead 2 to 1", "result": "0.211 ± 0.010", "unit": "mmol/L"}, {"measurement": "Treatment 1: Rhamnolipid Only (Rr) efficiency of removal", "setting": "[1]; molar ratio 2 to 1", "result": "(22.4%)"}, {"measurement": "Treatment 2: Rhamnolipid and Filtration (Rf) efficiency of removal", "setting": "[1]; molar ratio 2 to 1", "result": "(74.8%)"}, {"measurement": "Treatment 3: Rhamnolipid and Centrifugation (Rc) efficiency of removal", "setting": "[1]; molar ratio 2 to 1", "result": "(46.4%)"}, {"measurement": "Treatment 1: Rhamnolipid Only (Rr) efficiency of removal", "setting": "[1]; molar ratio 5 to 1", "result": "(25.0%)"}, {"measurement": "Treatment 2: Rhamnolipid and Filtration (Rf) efficiency of removal", "setting": "[1]; molar ratio 5 to 1", "result": "(81.8%)"}, {"measurement": "Treatment 3: Rhamnolipid and Centrifugation (Rc) efficiency of removal", "setting": "[1]; molar ratio 5 to 1", "result": "(82.8%)"}, {"measurement": "Treatment 1: Rhamnolipid Only (Rr) efficiency of removal", "setting": "[1]; molar ratio 10 to 1", "result": "(8.6%)"}, {"measurement": "Treatment 2: Rhamnolipid and Filtration (Rf) efficiency of removal", "setting": "[1]; molar ratio 10 to 1", "result": "(78.3%)"}, {"measurement": "Treatment 3: Rhamnolipid and Centrifugation (Rc) efficiency of removal", "setting": "[1]; molar ratio 10 to 1", "result": "(52.8%)"}, {"measurement": "Treatment 2: Rhamnolipid and Filtration Cf", "setting": "[2]; molar ratio 2 to 1", "result": "0.119 ± 0.007", "unit": "mmol/L"}, {"measurement": "Treatment 3: Rhamnolipid and Centrifugation Cc", "setting": "[2]; molar ratio 2 to 1", "result": "0.164 ± 0.013", "unit": "mmol/L"}, {"measurement": "Treatment 1: Rhamnolipid Only Cr", "setting": "[2]; molar ratio 5 to 1", "result": "0.197 ± 0.006", "unit": "mmol/L"}, {"measurement": "Treatment 2: Rhamnolipid and Filtration Cf", "setting": "[2]; molar ratio 5 to 1", "result": "0.044 ± 0.009", "unit": "mmol/L"}, {"measurement": "Treatment 3: Rhamnolipid and Centrifugation Cc", "setting": "[2]; molar ratio 5 to 1", "result": "0.074 ± 0.003", "unit": "mmol/L"}, {"measurement": "Treatment 1: Rhamnolipid Only Cr", "setting": "[2]; molar ratio 10 to 1", "result": "0.263 ± 0.007", "unit": "mmol/L"}, {"measurement": "Treatment 2: Rhamnolipid and Filtration Cf", "setting": "[2]; molar ratio 10 to 1", "result": "0.035 ± 0.001", "unit": "mmol/L"}, {"measurement": "Treatment 3: Rhamnolipid and Centrifugation Cc", "setting": "[2]; molar ratio 10 to 1", "result": "0.057 ± 0.004", "unit": "mmol/L"}, {"measurement": "Treatment 1: Rhamnolipid Only Cr", "setting": "[2]; molar ratio rhamnolipid:lanthanum 2 to 1", "result": "0.184 ± 0.014", "unit": "mmol/L"}, {"measurement": "Treatment 1: Rhamnolipid Only (Rr) efficiency of removal", "setting": "[2]; molar ratio 2 to 1", "result": "(31.5%)"}, {"measurement": "Treatment 2: Rhamnolipid and Filtration (Rf) efficiency of removal", "setting": "[2]; molar ratio 2 to 1", "result": "(55.7%)"}, {"measurement": "Treatment 3: Rhamnolipid and Centrifugation (Rc) efficiency of removal", "setting": "[2]; molar ratio 2 to 1", "result": "(38.7%)"}, {"measurement": "Treatment 1: Rhamnolipid Only (Rr) efficiency of removal", "setting": "[2]; molar ratio 5 to 1", "result": "(26.4%)"}, {"measurement": "Treatment 2: Rhamnolipid and Filtration (Rf) efficiency of removal", "setting": "[2]; molar ratio 5 to 1", "result": "(83.7%)"}, {"measurement": "Treatment 3: Rhamnolipid and Centrifugation (Rc) efficiency of removal", "setting": "[2]; molar ratio 5 to 1", "result": "(72.4%)"}, {"measurement": "Treatment 1: Rhamnolipid Only (Rr) efficiency of removal", "setting": "[2]; molar ratio 10 to 1", "result": "(2.0%)"}, {"measurement": "Treatment 2: Rhamnolipid and Filtration (Rf) efficiency of removal", "setting": "[2]; molar ratio 10 to 1", "result": "(86.9%)"}, {"measurement": "Treatment 3: Rhamnolipid and Centrifugation (Rc) efficiency of removal", "setting": "[2]; molar ratio 10 to 1", "result": "(78.7%)"}, {"measurement": "Treatment 2: Rhamnolipid and Filtration Cf", "setting": "[3]; molar ratio 2 to 1", "result": "0.182 ± 0.055", "unit": "mmol/L"}, {"measurement": "Treatment 3: Rhamnolipid and Centrifugation Cc", "setting": "[3]; molar ratio 2 to 1", "result": "0.276 ± 0.005", "unit": "mmol/L"}, {"measurement": "Treatment 1: Rhamnolipid Only Cr", "setting": "[3]; molar ratio 5 to 1", "result": "0.285 ± 0.005", "unit": "mmol/L"}, {"measurement": "Treatment 2: Rhamnolipid and Filtration Cf", "setting": "[3]; molar ratio 5 to 1", "result": "0.135 ± 0.074", "unit": "mmol/L"}, {"measurement": "Treatment 3: Rhamnolipid and Centrifugation Cc", "setting": "[3]; molar ratio 5 to 1", "result": "0.273 ± 0.014", "unit": "mmol/L"}, {"measurement": "Treatment 1: Rhamnolipid Only Cr", "setting": "[3]; molar ratio 10 to 1", "result": "0.285 ± 0.012", "unit": "mmol/L"}, {"measurement": "Treatment 2: Rhamnolipid and Filtration Cf", "setting": "[3]; molar ratio 10 to 1", "result": "0.008 ± 0.004", "unit": "mmol/L"}, {"measurement": "Treatment 3: Rhamnolipid and Centrifugation Cc", "setting": "[3]; molar ratio 10 to 1", "result": "0.266 ± 0.012", "unit": "mmol/L"}, {"measurement": "Treatment 1: Rhamnolipid Only Cr", "setting": "[3]; molar ratio rhamnolipid:magnesium 2 to 1", "result": "0.281 ± 0.002", "unit": "mmol/L"}, {"measurement": "Treatment 2: Rhamnolipid and Filtration (Rf) efficiency of removal", "setting": "[3]; magnesium, molar ratio 2 to 1", "result": "(32.1%)"}, {"measurement": "Treatment 2: Rhamnolipid and Filtration (Rf) efficiency of removal", "setting": "[3]; magnesium, molar ratio 5 to 1", "result": "(49.4%)"}, {"measurement": "Treatment 2: Rhamnolipid and Filtration (Rf) efficiency of removal", "setting": "[3]; magnesium, molar ratio 10 to 1", "result": "(97.1%)"}, {"measurement": "Treatment 3: Rhamnolipid and Centrifugation (Rc) efficiency of removal", "setting": "[3]; magnesium, molar ratio 10 to 1", "result": "(0.4%)"}]}
